Assay results taken from US20250026733A1, “DEUTERATED ANALOGS OF PYROLE INHIBITORS OF ERK, SYNTHESIS THEREOF AND INTERMEDIATES THERETO” (BIOMED VALLEY DISCOVERIES, INC., priority 2022, published 2025).
Read-outs that look alike come from different tables or passages of the source. Marks after values point to notes of the source that are not given here.

Columns and labels:
[1] = system: CYP1A2 mRNA expression; conditions: human, hepatocytes, 24 h
Procedure: (§3) A single preparation of characterized cryopreserved human hepatocytes isolated from non-transplantable human livers was treated in this study. Triplicate wells for each of the cultures were treated in 48-well plates with supplemented MCM (37±2° C.) containing 0.1% v/v DMSO (solvent control), one of three concentrations of each test article (1, 10 and 20 μM) or positive control CYP enzyme inducers omeprazole (50 μM), phenobarbital (1000 μM) or rifampin (20 μM). The cultures were incubated in a humidified culture chamber (37±2° C. at 95% relative humidity, 95/5% air/CO2). Approximately 24 h after treatment, hepatocytes were lysed in Buffer RLT reagent containing β-mercaptoethanol (100:1). The medium was aspirated, and Buffer RLT was added to each well. The cell lysates were prepared by repeated pipetting and shaking. Total RNA was isolated using the RNeasy Mini Kit. RNA quality and concentration were determined by measuring absorbance at 260 and 280 nm on a plate reader. Single-stranded cDNA was prepared from RNA with the RT Master Mix. The RT Master Mix comprises 10×RT buffer, 25× deoxyNTPs, 10× Random primers, RNase Inhibitor (20 U/μL), MultiScribe reverse transcriptase (50 U/μL) and RNase-free water. The RT Master Mix was added to each RNA sample to complete the components of the reaction. No template controls (NTCs) were included in the analysis. For the NTC reactions, RNase-free water was added in place of the RNA sample. The prepared cDNA samples were stored at −20±5° C. following analysis by qRT-PCR. Each PCR was performed in quadruplicate. A Primer Mix was prepared for each Gene Expression assay. A typical Primer Mix contained TaqMan Fast Advanced Master Mix (1×), Gene Expression Assay (1×, 900 nM forward and reverse primers) and RNase-free water. The Reaction Mix was prepared by adding the Primer Mix to cDNA. A percentage of samples (no less than 10%) included NAC (no amplification control) samples. […] Reactions were analyzed on a PCR sequence detection system. The relative quantity of the target cDNA compared with that of the control cDNA (GAPDH) was determined by the ΔΔCt method. Relative quantitation measures the change in mRNA expression in a test sample relative to that in a control sample (e.g., DMSO). This method assumes that the efficiency of the target amplification and the efficiency of the endogenous control amplification are approximately equal.

[2] = biological target: T1, CYP2C9 (Homo sapiens, UniProt P11712); experiment: In-vitro CYP inhibition study, CYP2C9; assay type: in vitro ADME; conditions: human liver microsomes, substrate Diclofenac (12 μM)
T1 construct: from tissue; host or cells: human liver microsomes, mixed-gender pool of 200
T1 sequence (P11712 whole entry): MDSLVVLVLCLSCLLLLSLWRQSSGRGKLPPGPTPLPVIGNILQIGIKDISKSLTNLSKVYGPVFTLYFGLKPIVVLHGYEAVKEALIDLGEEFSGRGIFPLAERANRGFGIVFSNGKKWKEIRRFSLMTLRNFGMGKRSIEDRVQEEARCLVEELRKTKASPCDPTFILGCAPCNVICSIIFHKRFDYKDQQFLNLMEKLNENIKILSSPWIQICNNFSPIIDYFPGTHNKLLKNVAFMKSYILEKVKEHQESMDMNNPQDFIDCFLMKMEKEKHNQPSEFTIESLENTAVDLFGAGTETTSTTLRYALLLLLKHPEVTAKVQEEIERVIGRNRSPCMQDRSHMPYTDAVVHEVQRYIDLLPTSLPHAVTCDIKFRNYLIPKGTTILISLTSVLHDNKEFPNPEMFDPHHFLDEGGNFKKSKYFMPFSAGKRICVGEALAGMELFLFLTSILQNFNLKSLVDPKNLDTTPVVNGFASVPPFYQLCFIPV
Procedure: (§1) Incubations were conducted using a cocktail of seven prototypical CYP substrates to ascertain the potential of each test article to inhibit the metabolism of concomitantly administered drugs. A mixed-gender pool of 200 human liver microsomal samples was used for this study. Incubations were conducted at approximately 37° C. in 200 μL incubation mixtures (pH 7.4) containing water, potassium phosphate buffer (50 mM), MgCl2 (3 mM), EDTA (1 mM), an NADPH regenerating system (NADP [1 mM], glucose 6 phosphate [5 mM], glucose 6 phosphate dehydrogenase [1 Unit/mL]), and probe substrate (i.e., a seven substrate cocktail) at the final concentrations indicated in Table 9. Reactions were initiated by the addition of NADPH-regenerating system and were automatically terminated at approximately 5 minutes by the addition of internal standard mixed in stop reagent, acetonitrile. The samples were centrifuged at 920×g for 10 minutes at 10° C. The supernatant fractions were analyzed by LC-MS/MS. To examine its ability to act as a time-dependent inhibitor of CYP enzymes, each test article (at the same concentrations used to evaluate direct inhibition, (i.e. 0, 0.02, 0.06, 0.2, 0.6, 2, 6, 20 μM) was pre-incubated at 37±2° C. with NADPH-fortified human liver microsomes for approximately 30 minutes. The pre-incubations were initiated by the addition of NADPH-regenerating system. After 30 min, probe substrate incubations were initiated by the addition of probe substrate cocktail. Incubations were terminated and samples were analyzed by LC-MS/MS. When inhibition was observed, the data were processed with a LIMS for the determination of IC50 values by utilizing the Levenberg-Marquardt algorithm to perform non-linear regression fitting of the data to the following 4-parameter sigmoidal-logistic IC50 equation:
(§2) As percent of control values are utilized, the minimum value (Min) is set to zero and the maximum value (Max) is set to 100 (or other values, as appropriate). The LIMS calculates an IC50 value only when it lies within the concentration range of the inhibitor studied. Therefore, when an IC50 value falls outside the concentration range studied, the IC50 values are reported to be greater than the highest concentration of the test article evaluated.

[3] = biological target: T2, CYP2C8 (Homo sapiens, UniProt P10632); experiment: In-vitro CYP inhibition study, CYP2C8; assay type: in vitro ADME; conditions: human liver microsomes, substrate Paclitaxel (5 μM)
T2 construct: from tissue; host or cells: human liver microsomes, mixed-gender pool of 200
T2 sequence (P10632 1-490): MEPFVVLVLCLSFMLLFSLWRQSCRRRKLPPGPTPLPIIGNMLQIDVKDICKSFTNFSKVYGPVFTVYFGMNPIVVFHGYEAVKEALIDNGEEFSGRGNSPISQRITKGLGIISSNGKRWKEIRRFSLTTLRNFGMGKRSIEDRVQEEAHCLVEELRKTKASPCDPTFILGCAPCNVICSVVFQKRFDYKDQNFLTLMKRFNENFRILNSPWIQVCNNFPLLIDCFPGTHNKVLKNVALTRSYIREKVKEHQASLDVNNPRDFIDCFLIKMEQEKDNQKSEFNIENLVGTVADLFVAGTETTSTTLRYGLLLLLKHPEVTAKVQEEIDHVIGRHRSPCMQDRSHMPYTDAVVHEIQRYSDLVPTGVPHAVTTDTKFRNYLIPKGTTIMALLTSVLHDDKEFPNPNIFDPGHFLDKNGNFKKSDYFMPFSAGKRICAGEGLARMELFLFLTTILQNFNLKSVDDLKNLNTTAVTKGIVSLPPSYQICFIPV
Procedure: as §1, §2

[4] = biological target: T3, CYP2C19 (Homo sapiens, UniProt P33261); experiment: In-vitro CYP inhibition study, CYP2C19; assay type: in vitro ADME; conditions: human liver microsomes, substrate S-Mephenytoin (60 μM)
T3 construct: from tissue; host or cells: human liver microsomes, mixed-gender pool of 200
T3 sequence (P33261 whole entry): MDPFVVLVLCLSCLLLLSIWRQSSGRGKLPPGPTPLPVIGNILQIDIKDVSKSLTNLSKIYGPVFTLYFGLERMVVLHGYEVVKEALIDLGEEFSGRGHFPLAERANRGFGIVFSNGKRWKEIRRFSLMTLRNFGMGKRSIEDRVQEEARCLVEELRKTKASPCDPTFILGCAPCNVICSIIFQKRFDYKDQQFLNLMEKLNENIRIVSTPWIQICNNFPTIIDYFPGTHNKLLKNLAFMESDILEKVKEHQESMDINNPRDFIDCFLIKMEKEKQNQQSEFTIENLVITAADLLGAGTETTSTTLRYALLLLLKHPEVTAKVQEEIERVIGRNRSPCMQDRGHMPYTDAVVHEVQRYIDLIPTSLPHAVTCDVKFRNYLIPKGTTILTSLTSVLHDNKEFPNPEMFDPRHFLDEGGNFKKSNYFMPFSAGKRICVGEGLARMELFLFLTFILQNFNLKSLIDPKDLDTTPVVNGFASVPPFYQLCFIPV
Procedure: as §1, §2

[5] = Pharmacokinetics and metabolite formation in rats; assay type: in vivo, rat; conditions: for AUC(0-t) / half-life: both sexes
Procedure: Ulixertinib, Formulas 18A, 19A, and 21A were dosed twice daily (12 hours apart, ±30 minutes) for five consecutive days (10 doses/animal) to rats via oral gavage (PO). Each compound was administered at a dose of 12.5 mg/kg to 6 rats (3 male/3 female, N=6 rats/compound). Each compound was formulated in 1% (w/v) carboxymethylcellulose (CMC) in water at a concentration of 1.25 mg/mL. Following the second (p.m.) dose on Day 5, blood samples were collected from each rat at approximately 0.5, 1, 2, 4, 6, 8, and 12 hours post-dose. Blood samples were centrifuged to obtain plasma. Plasma samples were analyzed for concentrations of the dosed compounds and selected metabolites using an established LC-MS/MS method. The lower limit of quantitation of each compound was 1.00 ng/mL. The rat half-life values (determined by non-compartmental analysis using WinNonlin software) for each compound are shown in Table 7, and the areas under curve from time 0 to hour 12 (AUC0-12), calculated using the linear trapezoidal rule, for each dosed compound and selected metabolites are presented in Table 8.

[6] = system: CYP2B6 mRNA expression; experiment: In-vitro CYP induction study, CYP2B6 mRNA in cultured human hepatocytes; conditions: 20 μM, approximately 24 h
Procedure: as §3

[7] = system: CYP3A4 mRNA expression; experiment: In-vitro CYP induction study, CYP3A4 mRNA in cultured human hepatocytes; conditions: 20 μM, approximately 24 h
Procedure: as §3

[8] = biological target: T4, CYP2D6 (Homo sapiens, UniProt P10635); experiment: In-vitro CYP inhibition study, CYP2D6; assay type: in vitro ADME; conditions: human liver microsomes, substrate Dextramethorphan (10 μM)
T4 construct: from tissue; host or cells: human liver microsomes, mixed-gender pool of 200
T4 sequence (P10635 whole entry): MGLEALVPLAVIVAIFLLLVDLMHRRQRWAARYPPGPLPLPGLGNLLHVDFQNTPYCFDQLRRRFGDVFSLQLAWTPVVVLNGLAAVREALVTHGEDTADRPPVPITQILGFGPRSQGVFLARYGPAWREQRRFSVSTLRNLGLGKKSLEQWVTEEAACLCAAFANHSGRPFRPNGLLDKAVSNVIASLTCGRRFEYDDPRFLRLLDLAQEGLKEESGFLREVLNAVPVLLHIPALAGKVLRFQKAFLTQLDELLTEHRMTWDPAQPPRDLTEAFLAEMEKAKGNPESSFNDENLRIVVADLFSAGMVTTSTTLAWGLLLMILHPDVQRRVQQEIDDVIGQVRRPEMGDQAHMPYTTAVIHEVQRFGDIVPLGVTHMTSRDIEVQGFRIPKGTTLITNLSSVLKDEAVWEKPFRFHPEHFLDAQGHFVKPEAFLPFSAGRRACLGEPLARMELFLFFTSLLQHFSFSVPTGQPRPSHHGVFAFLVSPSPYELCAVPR
Procedure: as §1, §2

[9] = system: pRSK/RSK in A375 cells; experiment: A375 pRSK/RSK dose response study (ELISA); assay type: cell-based; conditions: Homo sapiens, A-375, pRSK and total RSK ELISA
Procedure: A375 pRSK/RSK Dose Response Study
Briefly, A375 cells were plated at 30,000 cells/well in 2×96 well plates, allowed to recover overnight, washed and fed fresh media the next day then treated with a dose response of the selected compounds. Following the determined pretreatment with the compounds at 37° C./5% CO2 the media was aspirated, and cells lysed with cold, complete MSD lysis buffer. pRSK and total RSK were analyzed using CST/PathScan pRSK and total RSK ELISAS according to the respective kit protocols. All samples were analyzed at 90% of remaining sample in pRSK and 10% of remaining sample in total RSK ELISA, which was performed following kit protocols.

| Fold Change in mRNA Expression of CYP1A2 ([1]; 20 μM) | IC50 ([2]; preincubation 0 min) | IC50 ([2]; preincubation 30 min) | IC50 ([3]; preincubation 0 min) | IC50 ([3]; preincubation 30 min) | IC50 ([4]; preincubation 0 min) | IC50 ([4]; preincubation 30 min) | Fold Change in mRNA Expression of CYP2B6 [6] | Fold Change in mRNA Expression of CYP3A4 [7] | IC50 ([8]; preincubation 0 min) | IC50 ([8]; preincubation 30 min) | Fold Change in mRNA Expression of CYP1A2 ([1]; 1 μM) | IC50 [9] | Structure (SMILES) | other results |
| --- | --- | --- | --- | --- | --- | --- | --- | --- | --- | --- | --- | --- | --- | --- |
| 4.00 fold | 3.4 µM | 4.4 µM | 19 µM | 19 µM | 19 µM | 19 µM | 2.22 fold | 6.86 fold | > 20 µM | > 20 µM |  |  | Cl.[2H]C(C)(C)Nc1cc(-c2c[nH]c(C(=O)N[C@H](CO)c3cccc(Cl)c3)c2)c(Cl)cn1 [Formula 21A] | AUC(0-t) ([5]; rat, in vivo, po, 12.5 mg/kg): 193 µg·h/mL; half-life ([5]; rat, in vivo, po, 12.5 mg/kg): 3.81 h; AUC0-12 M2, percent change relative to Ulixertinib ([5]; both, rat, in vivo): (−17%^a); AUC0-12 M3, percent change relative to Ulixertinib ([5]; both, rat, in vivo): (+8%^a); AUC0-12 M6, percent change relative to Ulixertinib ([5]; both, rat, in vivo): (+7%^a); AUC0-12 Parent, percent change relative to Ulixertinib ([5]; both, rat, in vivo): (+12%^a); Half-life, percent change relative to Ulixertinib ([5]; both, rat, in vivo): (+4%^a); longer mean half-life than ulixertinib ([5]; both, rat, in vivo): 4% |
|  | 3.5 µM | 3.9 µM | 9.6 µM | 11 µM | 9.6 µM | 11 µM | 2.54 fold | 7.06 fold | > 20 µM | 19 µM | 3.02 fold | 0.04 µM | [2H]C([2H])([2H])C([2H])(Nc1cc(-c2c[nH]c(C(=O)N[C@H](CO)c3cccc(Cl)c3)c2)c(Cl)cn1)C([2H])([2H])[2H] [Formula 18, 4-(5-chloro-2-((propan-2-yl-d7)amino)pyridin-4-yl)-N-(1-(3-chlorophenyl)-2-hydroxyethyl)-1H-pyrrole-2-carboxamide] | Fold Change in mRNA Expression of CYP1A2 ([1]; 10 μM): 5.94 fold |
| 6.42 fold | 3.1 µM | 3.4 µM | 8.5 µM | 9.2 µM | 8.5 µM | 9.2 µM | 2.43 fold | 8.26 fold | > 20 µM | 18 µM | 3.73 fold | 0.037 µM | CC(C)Nc1cc(-c2c[nH]c(C(=O)N[C@H](CO)c3cccc(Cl)c3)c2)c(Cl)cn1 [Ulixertinib, reference compound] | AUC(0-t) ([5]; rat plasma, 12.5 mg/kg PO twice daily for five days, after second dose on Day 5, N=6, read-out: AUC0-12, Parent, Mean): 173 µg·h/mL; half-life ([5]; rat plasma, 12.5 mg/kg PO twice daily for five days, after second dose on Day 5, N=6, read-out: Half-life, t1/2, Mean (converted)): 3.67 h |
| 9.52 fold | 3.1 µM | 4.3 µM | 10 µM | 12 µM | 10 µM | 12 µM | 2.44 fold | 11.7 fold |  | > 20 µM | 3.57 fold |  | [2H]C([2H])([2H])C(Nc1cc(-c2c[nH]c(C(=O)N[C@H](CO)c3cccc(Cl)c3)c2)c(Cl)cn1)C([2H])([2H])[2H] [Formula 19, 4-(5-chloro-2-((propan-2-yl-1,1,1,3,3,3-d6)amino)pyridin-4-yl)-N-(1-(3-chiorophenyl)-2-hydroxyethyl)-1H-pyrrole-2-carboxamide] | IC50 at 5 min ([8]; both sexes, human, pH 7.4, probe Dextramethorphan (10 μM), preincubation 0 min): 20 µM |
